What was measured:
STAT3 = STAT3 (Homo sapiens, UniProt P40763); test: Estimated DC50 for STAT3 degradation in MOLM-16 cells (immunoblotting); type: cell-based; design: In vitro cultured cells or xenograft tumors were lysed; endogenous in cells; host or cells: MOLM-16; conditions: MOLM-16, 4 h; read-out: Estimated DC50 STAT3
Protocol: (§1) FIG. 62 is a series of four images showing the fluorescent immunoblotting analysis of STAT1 and STAT3 protein in Molm-16 cells after treatment for 4 h with Cpd. Nos. 331, 296, 361, 362, 363, 364, 365, 366, and 367 at the concentrations indicated.
(§2) In vitro cultured cells or xenograft tumors were lysed 1× Cell Lysis Buffer (Cell Signaling Technology, #9803), resolved by SDS-PAGE NuPAGE gel (Thermo Fisher Scientific), and transferred to a PVDF membrane (Bio Rad). For chemiluminescence immunoblotting, membranes were blocked for 1 h using 5% Blotting-Grade Blocker (#1706404, Bio Rad) in 1× Tris-buffered saline with Tween 20 (TBST, Pierce). Antibodies used were: rabbit mAbs for STAT3 (Cell Signaling Technology, #4368, #12640) and p-STAT3 (Y705) (Cell Signaling Technology, #9245, #52075). HRP conjugated goat anti-rabbit IgG (H+L) (#A27036) secondary antibodies was from Thermo Fisher Scientific. GAPDH (Santa Cruz Technology, sc-47724HRP) and actin (Santa Cruz Technology, sc-8432HRP, sc-47778HRP) were loading controls. For fluorescent immunoblotting, membranes were blocked using Odyssey TBS Blocker Buffer (LI-COR). IRDye 680RD and 800CW Dye-labeled secondary antibodies (LI-COR) were used. The washed membranes were scanned using Odyssey CLx imager (LI-COR). The intensity of Western blot signaling was quantitated using the Odyssey software.
(§3) The estimated DC50 in MOLM-16 cells of representative Compounds of the Disclosure against STAT3 and STAT1 is provide in Table 5.

STAT1 = biological target: T1, STAT1 (Homo sapiens, UniProt P42224); test: Estimated DC50 for STAT1 degradation in MOLM-16 cells (immunoblotting); type: cell-based; conditions: MOLM-16, 4 h; read-out: Estimated DC50 STAT1
T1 construct: In vitro cultured cells or xenograft tumors were lysed; endogenous in cells; host or cells: MOLM-16
T1 sequence (P42224 1-750): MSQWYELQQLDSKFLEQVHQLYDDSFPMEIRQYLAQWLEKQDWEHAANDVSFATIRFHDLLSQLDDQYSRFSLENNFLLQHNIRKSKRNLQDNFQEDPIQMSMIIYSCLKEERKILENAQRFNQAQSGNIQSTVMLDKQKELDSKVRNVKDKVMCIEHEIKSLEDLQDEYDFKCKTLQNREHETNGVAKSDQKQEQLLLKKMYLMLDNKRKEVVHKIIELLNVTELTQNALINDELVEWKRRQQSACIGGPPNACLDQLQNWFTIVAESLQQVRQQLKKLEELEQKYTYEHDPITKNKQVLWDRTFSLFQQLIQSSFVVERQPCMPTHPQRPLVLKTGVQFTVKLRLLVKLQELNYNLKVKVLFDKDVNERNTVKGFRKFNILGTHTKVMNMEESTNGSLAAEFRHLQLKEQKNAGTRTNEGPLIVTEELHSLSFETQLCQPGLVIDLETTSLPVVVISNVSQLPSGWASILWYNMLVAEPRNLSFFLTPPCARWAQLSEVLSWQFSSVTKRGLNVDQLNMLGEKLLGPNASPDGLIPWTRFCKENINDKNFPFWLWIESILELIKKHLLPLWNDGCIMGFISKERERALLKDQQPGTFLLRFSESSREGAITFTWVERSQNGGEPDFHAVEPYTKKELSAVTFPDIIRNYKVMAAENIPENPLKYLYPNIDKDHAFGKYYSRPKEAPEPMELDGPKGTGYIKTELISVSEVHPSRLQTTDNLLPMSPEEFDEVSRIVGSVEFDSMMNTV
Protocol: as §1, §2, §3

Chain of STAT3 (P40763 whole entry): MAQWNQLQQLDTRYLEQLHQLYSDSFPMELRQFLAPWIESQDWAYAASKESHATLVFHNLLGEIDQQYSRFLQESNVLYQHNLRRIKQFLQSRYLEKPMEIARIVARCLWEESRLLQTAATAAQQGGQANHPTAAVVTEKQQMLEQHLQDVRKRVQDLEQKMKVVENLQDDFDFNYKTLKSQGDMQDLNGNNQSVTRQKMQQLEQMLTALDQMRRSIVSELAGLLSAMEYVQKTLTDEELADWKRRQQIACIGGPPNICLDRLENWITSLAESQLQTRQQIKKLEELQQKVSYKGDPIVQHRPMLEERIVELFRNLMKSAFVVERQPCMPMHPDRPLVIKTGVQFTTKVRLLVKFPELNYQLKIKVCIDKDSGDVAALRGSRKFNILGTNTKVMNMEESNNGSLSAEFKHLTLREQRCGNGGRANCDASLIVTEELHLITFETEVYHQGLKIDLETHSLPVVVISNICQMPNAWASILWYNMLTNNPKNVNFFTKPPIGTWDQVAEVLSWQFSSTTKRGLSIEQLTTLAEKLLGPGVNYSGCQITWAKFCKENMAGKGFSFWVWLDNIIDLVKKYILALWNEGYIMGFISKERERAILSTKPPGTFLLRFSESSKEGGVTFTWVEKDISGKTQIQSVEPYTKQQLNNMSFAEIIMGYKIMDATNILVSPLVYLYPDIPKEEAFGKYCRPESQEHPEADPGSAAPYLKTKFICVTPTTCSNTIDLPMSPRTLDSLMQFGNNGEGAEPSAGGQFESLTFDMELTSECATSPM

Compound	DC50 (STAT3)	DC50 (STAT1)
CC(=O)N1CC[C@H]2CC[C@@H](C(=O)N[C@@H](CCC(N)=O)C(=O)N[C@@H](Cc3ccc(C(C)(C)C)cc3)C(=O)N3CCC(CCC#Cc4cccc5c4CN(C4CCC(=O)NC4=O)C5=O)CC3)N2C(=O)[C@@H](NC(=O)c2cc3cc(C(F)(F)P(=O)(O)O)ccc3s2)C1 (stereo partly drawn) [Cpd. No. 363, ((2-(((5S,8S,10aR)-3-acetyl-8-(((2S)-5-amino-1-(((2S)-3-(4-(tert-butyl)phenyl)-1-(4-(4-(2-(2,6-dioxopiperidin-3-yl)-1-oxoisoindolin-4-yl)but-3-yn-1-yl)piperidin-1-yl)-1-oxopropan-2-yl)amino)-1,5-dioxopentan-2-yl)carbamoyl)-6-oxodecahydropyrrolo [1,2-a][1,5]diazocin-5-yl)carbamoyl)benzo[b]thiophen-5-yl)difluoromethyl)phosphonic acid]	< 250 nM	< 250 nM
CC(C)N1CC[C@H]2CC[C@@H](C(=O)N[C@@H](CCC(N)=O)C(=O)N[C@@H](Cc3ccc(C(C)(C)C)cc3)C(=O)N3CCC(CCC#Cc4cccc5c4CN(C4CCC(=O)NC4=O)C5=O)CC3)N2C(=O)[C@@H](NC(=O)c2cc3cc(C(F)(F)P(=O)(O)O)ccc3s2)C1 (stereo partly drawn) [Cpd. No. 364, ((2-(((5S,8S,10aR)-8-(((2S)-5-amino-1-(((2S)-3-(4-(tert-butyl)phenyl)-1-(4-(4-(2-(2,6-dioxopiperidin-3-yl)-1-oxoisoindolin-4-yl)but-3-yn-1-yl)piperidin-1-yl)-1-oxopropan-2-yl)amino)-1,5-dioxopentan-2-yl)carbamoyl)-3-isopropyl-6-oxodecahydropyrrolo[1,2-a][1,5]diazocin-5-yl)carbamoyl)benzo[b]thiophen-5-yl)difluoromethyl) phosphonic acid]	< 250 nM	< 250 nM
CCN1CC[C@H]2CC[C@@H](C(=O)N[C@@H](CCC(N)=O)C(=O)N[C@@H](Cc3ccc(C(=O)N4CCC(F)(F)CC4)cc3)C(=O)N3CCC(CCC#Cc4cccc5c4CN(C4CCC(=O)NC4=O)C5=O)CC3)N2C(=O)[C@@H](NC(=O)c2cc3cc(C(F)(F)P(=O)(O)O)ccc3s2)C1 (stereo partly drawn) [Cpd. No. 365, ((2-(((5S,8S,10aR)-8-(((2S)-5-amino-1-(((2S)-3-(4-(4,4-difluoropiperidine-1-carbonyl)phenyl)-1-(4-(4-(2-(2,6-dioxopiperidin-3-yl)-1-oxoisoindolin-4-yl)but-3-yn-1-yl)piperidin-1-yl)-1-oxopropan-2-yl)amino)-1,5-dioxopentan-2-yl)carbamoyl)-3-ethyl-6-oxodecahydropyrrolo[1,2-a][1,5]diazocin-5-yl)carbamoyl)benzo[b]thiophen-5-yl)difluoromethyl) phosphonic acid]	< 250 nM	< 250 nM
CCN1CC[C@H]2CC[C@@H](C(=O)N[C@@H](CCC(N)=O)C(=O)N[C@@H](Cc3ccc(C(=O)N4CCOCC4)cc3)C(=O)N3CCC(CCC#Cc4cccc5c4CN(C4CCC(=O)NC4=O)C5=O)CC3)N2C(=O)[C@@H](NC(=O)c2cc3cc(C(F)(F)P(=O)(O)O)ccc3s2)C1 (stereo partly drawn) [Cpd. No. 366, ((2-(((5S,8S,10aR)-8-(((2S)-5-amino-1-(((2S)-1-(4-(4-(2-(2,6-dioxopiperidin-3-yl)-1-oxoisoindolin-4-yl)but-3-yn-1-yl)piperidin-1-yl)-3-(4-(morpholine-4-carbonyl)phenyl)-1-oxopropan-2-yl)amino)-1,5-dioxopentan-2-yl)carbamoyl)-3-ethyl-6-oxodecahydropyrrolo[1,2-a][1,5]diazocin-5-yl)carbamoyl)benzo[b]thiophen-5-yl)difluoromethyl) phosphonic acid]	< 250 nM	< 250 nM
CCN1CC[C@H]2CC[C@@H](C(=O)N[C@@H](CCC(N)=O)C(=O)N[C@@H](Cc3ccc(C(=O)NC4CCCCC4)cc3)C(=O)N3CCC(CCC#Cc4cccc5c4CN(C4CCC(=O)NC4=O)C5=O)CC3)N2C(=O)[C@@H](NC(=O)c2cc3cc(C(F)(F)P(=O)(O)O)ccc3s2)C1 (stereo partly drawn) [Cpd. No. 367, ((2-(((5S,8S,10aR)-8-(((2S)-5-amino-1-(((2S)-3-(4-(cyclohexylcarbamoyl)phenyl)-1-(4-(4-(2-(2,6-dioxopiperidin-3-yl)-1-oxoisoindolin-4-yl)but-3-yn-1-yl)piperidin-1-yl)-1-oxopropan-2-yl)amino)-1,5-dioxopentan-2-yl)carbamoyl)-3-ethyl-6-oxodecahydropyrrolo[1,2-a][1,5]diazocin-5-yl)carbamoyl)benzo[b]thiophen-5-yl)difluoromethyl) phosphonic acid]	< 1000 nM	< 1000 nM
CCN1CC[C@H]2CC[C@@H](C(=O)N[C@@H](CCNC(N)=O)C(=O)N[C@@H](Cc3ccc(C(C)(C)C)cc3)C(=O)N3CCC(CCC#Cc4cccc5c4CN(C4CCC(=O)NC4=O)C5=O)CC3)N2C(=O)[C@@H](NC(=O)c2cc3cc(C(F)(F)P(=O)(O)O)ccc3s2)C1 (stereo partly drawn) [compound 355, ((2-(((5S,8S,10aR)-8-(((2S)-1-(((2S)-3-(4-(tert-butyl)phenyl)-1-(4-(4-(2-(2,6-dioxopiperidin-3-yl)-1-oxoisoindolin-4-yl)but-3-yn-1-yl)piperidin-1-yl)-1-oxopropan-2-yl)amino)-1-oxo-4-ureidobutan-2-yl)carbamoyl)-3-ethyl-6-oxodecahydropyrrolo[1,2-a][1,5]diazocin-5-yl)carbamoyl)benzo[b]thiophen-5-yl)difluoromethyl)phosphonic acid]	> 1000 nM	> 1000 nM
CCN1CC[C@H]2CC[C@@H](C(=O)N[C@@H](CNC(N)=O)C(=O)N[C@@H](Cc3ccc(C(C)(C)C)cc3)C(=O)N3CCC(CCC#Cc4cccc5c4CN(C4CCC(=O)NC4=O)C5=O)CC3)N2C(=O)[C@@H](NC(=O)c2cc3cc(C(F)(F)P(=O)(O)O)ccc3s2)C1 (stereo partly drawn) [compound 356, ((2-(((5S,8S,10aR)-8-(((2S)-1-(((2S)-3-(4-(tert-butyl)phenyl)-1-(4-(4-(2-(2,6-dioxopiperidin-3-yl)-1-oxoisoindolin-4-yl)but-3-yn-1-yl)piperidin-1-yl)-1-oxopropan-2-yl)amino)-1-oxo-3-ureidopropan-2-yl)carbamoyl)-3-ethyl-6-oxodecahydropyrrolo[1,2-a][1,5]diazocin-5-yl)carbamoyl)benzo[b]thiophen-5-yl)difluoromethyl)phosphonic acid]	< 250 nM	> 1000 nM

— patent publication US20230083015A1, “SMALL MOLECULE DEGRADERS OF STAT3” (THE REGENTS OF THE UNIVERSITY OF MICHIGAN, priority 2019, published 2023)
